The values that follow come from patent US10434199B2, “Picolinate cross-bridged cyclams, chelates with metallic cations and use thereof” (UNIVERSITÉ DE BRETAGNE OCCIDENTALE, priority 2013, dated 2019).

Format in all cases: physicochemical
The nature of data set [1]: Potentiometric titrations: stability constants and pM of Zn^2+ complexes. On the procedure: Equipment and work conditions. The potentiometric setup has been described in Roger, M. et al. Inorg. Chem. 2013, 52, 5246-5259. The titrant was a KOH solution prepared at ca. 0.1 M from a commercial ampoule of analytical grade, and its accurate concentration was obtained by application of the Gran's method upon titration of a standard HNO3 solution (Rossotti, F. J. and Rossotti, H. J. J. Chem. Educ. 1965, 42, 375-378). Ligand solutions were prepared at about 2.0×10^−3 M, and the Cu^2+ and Zn^2+ solutions at ca. 0.05 M from analytical grade nitrate salts and standardized by complexometric titrations with H4edta (ethylenediaminetetraacetic acid). Sample solutions for titration contained approximately 0.04 mmol of ligand in a volume of 30 mL where the ionic strength was kept at 0.10 M using KNO3 as background electrolyte. Metal cations were added at 0.9 equiv. of the ligand amount in complexation titrations. Batch titrations were prepared in a similar way but with each titration point corresponding to 1/10 of the amount of a conventional titration sample. Batch titration points were incubated in tightly closed vials at 25° C. until potential measurements attained complete stability, which happened within a week.
Measurements. All measurements were carried out at 25.0±0.1° C. under inert atmosphere. The electromotive force of the sample solutions was measured after calibration of the electrodes by titration of a standard HNO3 solution at 2.0×10^−3 M in the work conditions. The [H^+] of the solutions was determined by measurement of the electromotive force of the cell, E=E^o′+Q log [H^+]+Ej. The term pH is defined as −log [H^+]. E^o′ and Q were determined from the acid region of the calibration curves. Deviations from the Nernst law at very low pH (pH<2.5) were corrected with the VLpH software (Calibration software from the maker of Hyperquad available for free at http://www.hyperquad.co.uk/), which performs a [H^+] correction based on a very low pH calibration procedure. The liquid-junction potential, Ej, was otherwise found to be negligible for pH >2.5 under the experimental conditions used. […] Each titration consisted of 80-100 equilibrium points in the range of pH 2.5-11.5 (or 1.5-11.5 for Cu^2+ complexations), and at least two replicate titrations were performed for each particular system.
Calculations. The potentiometric data were refined with the Hyperquad software, and speciation diagrams were plotted using the HySS software. The overall equilibrium constants βi^H and βMmHhL1 are defined by βMmHhL1=[MmHhLl]/[M]^m[H]^h[L]^l (βi^H=[HhLl]/[H]^h[L]^l and βML-1L=βML(OH)×Kw). Differences in log units between the values of protonated (or hydrolysed) and non-protonated constants provide the stepwise (log K) reaction constants (being KMmHhL1=[MmHhLl]/[MmHh-1Ll][H]). The errors quoted are the standard deviations calculated by the fitting program from all the experimental data for each system.
The stability constants of the complexes formed by Hcb-te1pa with Cu^2+ and Zn^2+ were determined by potentiometric titrations in aqueous solution at 25.0° C. in 0.10 M KNO3 ionic strength (Table 2).
The equilibrium of formation of the copper(II) and especially the zinc(II) complexes is slow in the acidic pH range. In the case of Cu^2+, the complexation is almost complete from low pH but relatively slow up to pH=4. To overcome this double problem, conventional titrations were performed at pH values below 2 in order to observe a significant percentage of free metal ion (at least 18%) and thus allow for determination of the corresponding stability constant, while giving the solution enough time to reach equilibrium prior to the start of the titration. During titrations, each experimental point included a supplementary equilibration time in order to yield fully stabilized measurements. […]

Data set [2] can be described thus: Copper(II) complex formation kinetics (UV-vis, buffered aqueous solutions). The settings on record: for time to completion (>99%) of copper(II) complex formation: 25° C. The method, then: Complex Formation. The formation of the copper(II) complex of Hcb-te1pa was studied in buffered aqueous solutions at 25° C. The increasing intensity of the complex d-d transition band in the visible range (600 nm) was followed at pH=5.0 (0.2 M potassium acetate buffer) and pH=7.4 (0.2 M HEPES buffer), with [Cu^2+]=[Hcb-te1pa]=0.8 mM. Additionally, complex formation was also studied at pH=3.0 (0.2 M (K,H)Cl) under pseudo-first order conditions, by following the increasing charge transfer band in the UV range (at 310 nm) at [Cu^2+]=10×[Hcb-te1pa]=2 mM.
The copper(II) complex formation with Hcb-te1pa was spectroscopically monitored in different buffered solutions from acidic to neutral pH. […] The reaction becomes progressively slower because of the increase of the acidity of the reaction media, enabling a kinetic study under pseudo-first order conditions using conventional UV-vis spectroscopic methods. In this work such kinetic study was performed at pH=3, which is at the lower limit of the pH range in which the copper(II) complexation is approximately complete under equilibrium in equimolar metal-to-ligand conditions.

Data set [3] can be described thus: Cyclic voltammetry of the copper(II) complexes. The settings on record: overview table. On the procedure: Cyclic voltammograms were measured using Autolab equipment at room temperature. All measurements were made using a three-electrode system: a glassy-carbon electrode as a working electrode, a platinum wire as a counter-electrode, and a saturated calomel reference electrode. All electrochemical experiments were performed in ca. 1 mM aqueous solutions of preformed complex under a N2 atmosphere containing 0.1 M NaClO4 as the supporting electrolyte. From the initial potential of the analysis (0 V), the voltage was ramped to −1.3 V, then to 0.2 V, and back to 0 V at a scan rate of 100 mV/s. All potentials are expressed relative to the saturated calomel electrode (SCE) except otherwise noted.
One of the explanations for the dissociation of copper(II) complexes of macrocyclic ligands in biological media is the metal reduction to copper(I) followed by the demetallation of the complex. It is thus important to ensure the electrochemical inertness as well as the reversibility of the redox system. To determine the redox behavior of the copper complex of Hcb-te1pa, cyclic voltammetry experiments were performed in aqueous solution at pH values of 2.3 and 6.8. The experiments were carried out with a glassy-carbon working electrode in solutions containing 0.1 M NaClO4 as supporting electrolyte.

In the case of `O=C(O)c1cccc(CN2CCCN3CCNCCCN(CC3)CC2)n1` [Hcb-te1pa, 6-(1,4,8,11-tetraazabicyclo[6.6.2]hexadecan-4-ylmethyl)picolinic acid], in data set [1] (25.0° C., I = 0.10M KNO3), the “log KMLHh, ZnLOH + H^+ ⇌ ZnL” value was 11.33 log units; the “log KMLHh, Zn^2+ + L ⇌ ZnL” value came to 18.83 log units; the “log βMLHh, Zn^2+ + L ⇌ ZnL” value is reported as 18.83(6) log units; the “log βMLHh, Zn^2+ + L ⇌ ZnLOH + H^+” value is on record as 7.50(7) log units. Besides, the “c) inertness vs Zn: log K[ZnL]” value in data set [1] (overview table) was determined as 18.83. Besides, the “c) inertness vs Zn: pZn” value in data set [1] (overview table, calculated pM) is 8.50. The “Calculated pM, Zn^2+” value in data set [1] (pH = 7.4, 100% excess of ligand, [M^2+]tot = 1 × 10^−5 M) was 8.50. The “a) metallation kinetics: time required for complete (>99%) Cu complexation” value in data set [2] (overview table) amounted to 3 min. Besides, the “time to quantitative (>99%) formation of copper(II) complex” value in data set [2] (pH=3, pseudo-first order, excess of 10 equivalents of metal cation) was ≤ 10 min. Further, the “time to completion (>99%) of copper(II) complex formation” value in data set [2] (pH=5, equimolar metal-to-ligand ratio) was ≤ 3 min. Further, the “time to completion (>99%) of copper(II) complex formation” value in data set [2] (physiological pH (7.4), equimolar metal-to-ligand ratio) is “within a few seconds”. The copper chelated immediately result in data set [2] (remaining copper chelated within a few seconds) is reported as “more than 90%”. For the same compound, in data set [3], the “e) stability upon reduction, Cu(II) -> Cu (I): reduction potential” value is on record as −0.696 V and the “e) stability upon reduction, Cu(II) -> Cu (I): reversibility” value is given as “reversible”.
